Experimental data as given in US11453841B2, “Functionalized branched alcohols as non-ionic sugar surfactants” (ExxonMobil Technology and Engineering Company, priority 2019, dated 2022).

Test: Surface tension isotherms
Format: physicochemical
Details: 22° C.
Experimental: Surface tension isotherms were measured for selected functionalized branched alcohols EXXAL™ 11-Glucose-3(EO )Linker (also referred to herein as “EXXAL™ 11-EO3-Glucoside”) and EXXAL™ 11-Galactose-3(EO)Linker, as well as comparative alkoxylated alcohol glycoside n-undecanol-glucose-3(EO)Linker (also referred to herein as “Undecanol-EO3-Glucoside”). The names, chemical structures, and weight average molecular weights of these functionalized branched alcohols are as follows:
Tables 7, 8 and 9 immediately below provide surface tension isotherms for the compounds 1, 2, and 3 measured at 22° C. Specifically, Table 7 provides surface tension data of n-undecanol-glucose-3(EO)Linker, Table 8 provides surface tension data of EXXAL™ 11-Gluscose-3(EO)Linker, and Table 9 provides surface tension data of EXXAL™ 11-Galactose-3(EO)Linker.

Surface Tension (γ) (Molarity 0.000125058 mol/L): 41.0 mN/m | Surface Tension (γ) (Molarity 0.000339945 mol/L): 34.5 mN/m | Surface Tension (γ) (Molarity 0.000924077 mol/L): 33.2 mN/m | Surface Tension (γ) (Molarity 0.001928806 mol/L): 33.1 mN/m | Surface Tension (γ) (Molarity 1.69248E−05 mol/L): 55.6 mN/m | Surface Tension (γ) (Molarity 2.29052E−06 mol/L): 66.4 mN/m | Surface Tension (γ) (Molarity 4.60064E−05 mol/L): 48.6 mN/m | Surface Tension (γ) (Molarity 6.22628E−06 mol/L): 61.5 mN/m | Surface Tension (γ) (Molarity 8.42635E−07 mol/L): 70.2 mN/m
Compound: CCCCCCCCCCCOCCOCCOCCOC1OC(CO)C(O)C(O)C1O (stereo not drawn) [Compound 1, n-undecanol-glucose-3(EO)Linker]
